Legend:
[1] = parameters: method as in PMID 9671775; conditions: diet supplemented with 200 mg/kg CoQ10 for 2 months; cited from earlier work
[2] = tested on: ataxic symptoms; parameters: method as in PMID 22490322; conditions: cerebellar ataxic phenotype, following CoQ10 supplementation; cited from earlier work
[3] = parameters: method as in PMID 16647250; conditions: high-dose (1000–5000 mg/kg) CoQ10; cited from earlier work
[4] = tested on: bEnd.3 cells (mouse BBB cell line) monolayer; assay: CoQ10 transport assay across bEnd.3 monolayer on Transwell filters (control or pABA treated)
Procedure: (§1) Unless stated, CoQ10 was pre-treated by incubation in serum at a concentration of 20 µM for 45 min at 37 °C, and added to assay buffer on either the Apical (blood facing) or Basal (brain facing) side of the cells on Transwell filters. The final concentration of CoQ10 used in the assays was 10 µM in serum (50% v/v). Cells were then incubated for 60 min on an orbital shaker (100 rpm) at 37 °C. Samples of the Apical (A) and Basal (B) media were then taken for analysis to calculate A to B (blood-to-brain) or B to A (brain-to-blood) Papp in cm/s, as previously described by Patabendige et al.. CoQ10 concentrations were determined using the LC-MS/MS method described above (Section 2.2).
(§2) Inhibitors of transport were added to both Apical and Basal sides of the cells for 2 h prior to assay. Antioxidants were pre-incubated with CoQ10 in serum for 45 min prior to assay, and were present in the assay buffer. Compounds used were; SR-B1 inhibitor, blocker of lipid transport-1 (BLT-1; 10 µmol/L)
As previously described, para-aminobenzoic acid (pABA) was used as a pharmacological reagent to induce CoQ10 deficiency. The mechanism of action is via competitive inhibition of polyprenyl-4-hydroxybenzoate transferase (Coq2p), a key enzyme in the later stages of the CoQ10 biosynthetic pathway. Following the method of Duberley et al., 1 mmol/L pABA was added to culture medium for 5 days prior to assay.

[5] = tested on: CoQ10 deficient human neuroblastoma cells; parameters: method as in PMID 24534273; conditions: treatment with 10 μmol/L CoQ10; cited from earlier work
[6] = CoQ10 partition in serum lipoprotein fractions; format: in vitro ADME, bovine; conditions: for CoQ10 content in HDL fraction / CoQ10 content in LDL fraction: n = 3; for CoQ10 content in vLDL fraction: calculated by subtraction
Procedure: Bovine plasma-derived serum (BPDS) was either untreated or supplemented with 10 µM CoQ10 for 45 min at 37 °C. Serum lipoproteins were then fractionated according to the method of Ononogbu et al. and the CoQ10 content measured in each fraction by LC-MS/MS. This lipoprotein fraction method is comprised of two parallel precipitation-centrifugation extractions, yielding a separation of the major classes of lipoprotein as supernatants containing “LDL + HDL” and “HDL”. The concentration of CoQ10 in the “VLDL” fraction was calculated by subtraction.

[7] = parameters: method as in PMID 17482886, PMID 22272129; conditions: after oral-supplementation in vivo; cited from earlier work
[8] = tested on: primary porcine brain endothelial cells (PBEC) monolayer; assay: CoQ10 transport assay across PBEC monolayer on Transwell filters; conditions: for Transport to the Basal side, percentage of Apical compartment: A to B, no serum pre-incubation
Procedure: Primary porcine brain endothelial cells (PBEC) were isolated and cultured as previously published. Briefly, cells were seeded at 10 × 10^4 cells/cm^2 on collagen and fibronectin-coated polycarbonate Transwell filters (Corning 0.4 µm pore size) in 12-well plates, and grown in low glucose DMEM (Sigma D5546) supplemented with bovine plasma-derived serum (10% v/v; BPDS, First Link UK), glutamine (2 mM), heparin (125 µg/mL), penicillin (100 U/mL) and streptomycin (100 µg/mL), at 37 °C in a 5% CO2 incubator. PBECs were grown in non-contact co-culture above primary rat astrocytes until confluent, then supplemented with hydrocortisone (550 nM), 8-4-chlorophenylthio-cAMP (250 µM) and RO-20-1724 (17.5 µM) in serum-free medium for a further 3 days. Before assays of CoQ10 transport, PBECs were separated from astrocytes by moving transwell filters to fresh culture plates.
as §1, §2

[9] = serum supplemented with 10 μmol/L CoQ10
[10] = serum supplemented with 10 μmol/L CoQ10, 45 min

With `COC1=C(OC)C(=O)C(C/C=C(\C)CC/C=C(\C)CC/C=C(\C)CC/C=C(\C)CC/C=C(\C)CC/C=C(\C)CC/C=C(\C)CC/C=C(\C)CC/C=C(\C)CCC=C(C)C)=C(C)C1=O` [CoQ10, Coenzyme Q10] as the compound, how does the “Increase in cerebral cortex CoQ10 and CoQ9” value [1] read?
Its value is 30%.

What about the “Patients with improvement/stabilisation in ataxic symptoms” value [2] of the same compound?
The value was 49%.

And the “Brain levels of CoQ10 and CoQ9” value [3]?
Its value is “significantly increased in brain levels of CoQ10 and CoQ9”.

And the “Effect of serum pre-incubation on Papp (A to B and B to A)” value ([4]; bEnd.3, 60 min)?
Its value is “enhanced transport in both directions”.

What about the “NET CoQ10 Apical to Basal Papp (A to B Papp - B to A Papp)” value (shortened to “NET CoQ10 Apical to Basal Papp”) ([4]; bEnd.3, Control) of the same compound?
Its value is -0.02 ×10⁻⁶ cm/s.

And the “NET CoQ10 Apical to Basal Papp” value ([4]; bEnd.3, LDLR inhib (RAP 0.5 µM))?
Its value is 0.1 ×10⁻⁶ cm/s.

And the “NET CoQ10 Apical to Basal Papp” value ([4]; bEnd.3, P-gp inhib (verapamil 0.1 mM))?
Its value is -0.04 ×10⁻⁶ cm/s.

What about the “NET CoQ10 Apical to Basal Papp” value ([4]; bEnd.3, RAGE inhib (FPS-ZM1 1 µM)) of the same compound?
The value was -0.08 ×10⁻⁶ cm/s.

What about the “NET CoQ10 Apical to Basal Papp” value ([4]; bEnd.3, SR-B1 inhib (BLT-1 10 µM)) of the same compound?
Its value is -0.13 ×10⁻⁶ cm/s.

What about the “Transport across monolayer after pABA treatment vs control” value ([4]; bEnd.3, pABA 1 mM 5 days) of the same compound?
Its value is “increased transport”.

What about the MRC function [5] of the same compound?
The MRC function was “restores MRC function”.

What about the “Supplemented CoQ10 recovered in the vLDL/LDL fractions” value ([6]; serum supplemented with 10 µM CoQ10) of the same compound?
Its value is “More than 92%”.

And the “% of CoQ10 in HDL fraction” value [6, 9]?
Its value is 7.2%.

And the “% of CoQ10 in LDL fraction” value [6, 9]?
The value was 63.8%.

And the “% of CoQ10 in vLDL fraction” value [6, 9]?
Its value is 29%.

What about the “CoQ10 content in HDL fraction” value [6, 10] of the same compound?
Its value is 762 ± 8.1 nmol/L.

And the “CoQ10 content in LDL fraction” value [6, 10]?
The value was 6718 ± 103.5 nmol/L.

What about the “CoQ10 content in vLDL fraction” value [6, 9] of the same compound?
The value was 3060 ± 138.8 nmol/L.

And the “Serum endogenous CoQ10 content” value ([6]; untreated cell culture serum)?
The value was 147.5 ± 0.5 nM.

What about the “% of CoQ10 in HDL fraction” value ([6]; untreated serum) of the same compound?
Its value is 21.7%.

And the “% of CoQ10 in LDL fraction” value ([6]; untreated serum)?
Its value is 77.7%.

What about the “% of CoQ10 in vLDL fraction” value ([6]; untreated serum) of the same compound?
Its value is 0.6%.

What about the “CoQ10 content in HDL fraction” value ([6]; untreated serum) of the same compound?
Its value is 32.7 ± 1.8 nmol/L.

And the “CoQ10 content in LDL fraction” value ([6]; untreated serum)?
Its value is 117.0 ± 1.2 nmol/L.

And the “CoQ10 content in vLDL fraction” value ([6]; untreated serum)?
Its value is 0.9 ± 0.01 nmol/L.

What about the “Highest achievable CoQ10 plasma concentration” value [7] of the same compound?
Its value is 10.7 µmol/L.

What about the “Transport to the Basal side, percentage of Apical compartment” value ([8]; 30 min) of the same compound?
The value was “undetectable”.

What about the “Transport to the Basal side, percentage of Apical compartment” value ([8]; after 2 h, n = 4) of the same compound?
The value was 0.51 ± 0.15%.

And the “Increase of transport across PBEC monolayer after pre-incubation in serum” value ([8]; CoQ10 pre-incubated 45 min in serum (BPDS) vs no serum)?
Its value is 4 fold.

What about the “Effect of serum pre-incubation on Papp (A to B and B to A)” value ([8]; PBEC, 60 min) of the same compound?
Its value is “enhanced transport in both directions”.

What about the “Transport across monolayer after pABA treatment vs control” value ([8]; PBEC, pABA 1 mM 5 days) of the same compound?
Its value is “increased transport”.
